Counter-ions that a name gives are not always drawn. Like-named read-outs stand apart in the source and are kept apart here.
Columns and labels:
[1] = Dog pharmacokinetics, powder in capsule; format: in vivo, beagle dogs
Protocol: Groups, Dosing, and Collection. The pharmacokinetics of the free acid and the tris salt of Compound 1 administered by oral capsules was assessed in dogs. Three male beagle dogs were administered a single dose of 3 mg/kg Compound 1 free acid on Day 1 of the study, and a single dose of 3 mg/kg Compound 1 tris salt on Day 8 of the study. Plasma was collected pre-dose, and at 0.5, 1, 2, 4, 8, 12 and 24 hours post-dose via puncture of peripheral veins.
LC MS-MS Analysis. Liquid Chromatography with tandem mass spectrometry was used to determine plasma concentrations of Compound 1 Free Acid and Compound 1 Tris Salt in plasma samples collected at prescribed time points. Instrumentation included YMC-Triart C18, S-5 μm (50×2.1 mm) HPLC column, liquid chromatograph Shimadzu LC-30AD with communications bus module CBM-20A and Auto SIL-20AC HT; and a Triple Quad 5500 LC/MS/MS instrument. Tolbutamide was used as an internal standard.

[2] = Rat pharmacokinetics, oral gavage; format: in vivo, Sprague-Dawley rats; design: AUClast/D: unit not given here; conditions: for MRT inf: read-out: MRTInf—obs; for AUC(0-t) / Cmax / Tmax / AUC0-24 salt/ AUC0-24 free/ / AUC0-24: rat
Protocol: Groups, Dosing, and Collection. […] Three rats per group were perorally administered 20, 60, or 200 mg Compound 1 free acid or 25, 75, or 250 mg in 0.5% methylcellulose in Saline for a final concentration of 2, 6, or 20 mg/mL Compound 1 free acid or 2.5, 7.5, or […]. Plasma was collected at 5 min, 15 min, 30 min, 1 hour, 2 hour, 4 hour, 6 hour, 8 hour, and 24 hour post dose via jugular vein.
Stock and Dose Prep. Stock solutions were prepared by dissolving 2.47 mg of Compound 1 (free acid) in 2.470 mL DMSO with vortexing to obtain 1 mg/mL solution of Compound 1 (free acid), or 2.09 mg of Compound 1 (Tris salt) in […] DMSO with vortexing to obtain 1 mg/mL solution of Compound 1 (Tris salt). Dosing solutions were prepared by vortexing/sonicating the following solids in solvent:
LC MS-MS Analysis. Liquid Chromatography with tandem mass spectrometry was used to determine plasma concentrations of Compound 1 Free Acid and Compound 1 Tris Salt in plasma samples collected at prescribed time points.
Appropriate serial concentrations of working solutions were achieved by diluting stock solution of analyte with 50% acetonitrile in water solution. Five μL of working solutions (10, 20, 50, 100, 500, 1000, 5000, 8000, 10000 ng/mL) were added to 50 μL of the blank male SD Rat plasma to achieve calibration standards of 1˜1000 ng/ml (1, 2, 5, 10, 50, 100, 500, 800, 1000 ng/mL) in a total volume of 55 μL. Five quality control (QC) samples at 2 ng/mL, 5 ng/mL, 10 ng/mL, 50 ng/mL and 800 ng/mL for plasma were prepared independently of those used for the calibration curves. These QC samples were prepared on the day of analysis in the same way as calibration standards. 55 μL standards, 55 μL QC samples and 55 μL unknown samples (50 μL plasma/blood with 5 μL blank solution) were added to 200 μL of methanol containing internal standard (dexamethasone) mixture for precipitating protein respectively, and vortexed for 30 seconds. After centrifugation at 4° C. and 4000 rpm for 15 minutes. The supernatant was diluted with water with a ratio of 1:2. 2 μL of the supernatant was injected into the LC/MS/MS system for quantitative analysis.
Instrumentation included HALO 90A C18 2.7 μm 2.1×50 mm HPLC column, a Prominence degasser DGU-20A5R(C), liquid chromatograph Shimadzu LC-30AD with communications bus module CBM-20A and Auto SIL-20AC HT; and an AB Sciex Triple Quad 5500 LC/MS/MS instrument.

[3] = male beagle dogs, powder in capsule, 3 mg/kg, mean
[4] = Sprague-Dawley, plasma, rat PO 25 mg/kg, female, mean
[5] = Sprague-Dawley, plasma, rat PO 25 mg/kg, male, mean
[6] = Sprague-Dawley, plasma, rat PO 75 mg/kg, female, mean
[7] = Sprague-Dawley, plasma, rat PO 75 mg/kg, male, mean
[8] = Sprague-Dawley, plasma, rat PO 250 mg/kg, female, mean
[9] = Sprague-Dawley, plasma, rat PO 250 mg/kg, male, mean
[10] = Female, PO/20 mg/kg, Mean ± SD, 20 mg/kg
[11] = Female, PO/60 mg/kg, Mean ± SD, 60 mg/kg
[12] = Female, PO/200 mg/kg, Mean ± SD, 200 mg/kg

CC(C)(OCc1cc(-c2cccc(OC3CCC3)c2)n(-c2ccccc2N2CCC2)n1)C(=O)O [Compound 1 tris salt, tris salt of 2-((1-(2-(azetidin-1-yl)phenyl)-5-(3-cyclobutoxyphenyl)-1H-pyrazol-3-yl)methoxy)-2-methylpropanoic acid]
Half-life compared to free acid ([1]; dogs): lower | Mean residence time compared to free acid ([1]; dogs): increased | Total drug exposure across time (AUClast and AUCInf) compared to free acid ([1]; dogs, powder in capsule and suspension formulations): higher | ClF [1, 3]: 756 | MRTlast [1, 3]: 7.89 h | T1/2 [1, 3]: 3.63 h | AUC(0-inf) [2, 4]: 1040 µg·h/mL | half-life [2, 4]: 392 min | MRT inf [2, 4]: 9.9 h | AUC(0-inf) [2, 5]: 357 µg·h/mL | half-life [2, 5]: 194 min | MRT inf [2, 5]: 6.1 h | AUC(0-inf) [2, 6]: 3270 µg·h/mL | half-life [2, 6]: 576 min | MRT inf [2, 6]: 14.7 h | AUC(0-inf) [2, 7]: 910 µg·h/mL | half-life [2, 7]: 175 min | MRT inf [2, 7]: 6.03 h | AUC(0-inf) [2, 8]: 16300 µg·h/mL | half-life [2, 8]: 2430 min | MRT inf [2, 8]: 62 h | AUC(0-inf) [2, 9]: 2890 µg·h/mL | half-life [2, 9]: 732 min | MRT inf [2, 9]: 18.6 h | AUC(0-t) ([2]; female, Sprague-Dawley, plasma, po, 25 mg/kg, rat PO 25 mg/kg, female, mean, read-out: AUClast): 947 µg·h/mL | Cmax ([2]; female, Sprague-Dawley, plasma, po, 25 mg/kg, rat PO 25 mg/kg, female, mean, read-out: Cmax): 68.6 µg/mL | Tmax ([2]; female, Sprague-Dawley, plasma, po, 25 mg/kg, rat PO 25 mg/kg, female, mean, read-out: Tmax): 6 h | AUC(0-t) ([2]; female, Sprague-Dawley, plasma, po, 75 mg/kg, rat PO 75 mg/kg, female, mean, read-out: AUClast): 2540 µg·h/mL | Cmax ([2]; female, Sprague-Dawley, plasma, po, 75 mg/kg, rat PO 75 mg/kg, female, mean, read-out: Cmax): 171 µg/mL | Tmax ([2]; female, Sprague-Dawley, plasma, po, 75 mg/kg, rat PO 75 mg/kg, female, mean, read-out: Tmax): 5.33 h | AUC(0-t) ([2]; female, Sprague-Dawley, plasma, po, 250 mg/kg, rat PO 250 mg/kg, female, mean, read-out: AUClast): 4470 µg·h/mL | Cmax ([2]; female, Sprague-Dawley, plasma, po, 250 mg/kg, rat PO 250 mg/kg, female, mean, read-out: Cmax): 223 µg/mL | Tmax ([2]; female, Sprague-Dawley, plasma, po, 250 mg/kg, rat PO 250 mg/kg, female, mean, read-out: Tmax): 6.67 h | Total drug exposure across time (AUClast and AUCInf) compared with free acid ([2]; male and female rats): higher | AUC(0-t) ([2]; male, Sprague-Dawley, plasma, po, 25 mg/kg, rat PO 25 mg/kg, male, mean, read-out: AUClast): 352 µg·h/mL | Cmax ([2]; male, Sprague-Dawley, plasma, po, 25 mg/kg, rat PO 25 mg/kg, male, mean, read-out: Cmax): 44.2 µg/mL | Tmax ([2]; male, Sprague-Dawley, plasma, po, 25 mg/kg, rat PO 25 mg/kg, male, mean, read-out: Tmax): 2.86 h | AUC(0-t) ([2]; male, Sprague-Dawley, plasma, po, 25 mg/kg, Male, PO/25 mg/kg, Mean ± SD, read-out: AUC0-24): 352 µg·h/mL | Cmax ([2]; male, Sprague-Dawley, plasma, po, 25 mg/kg, Male, PO/25 mg/kg, Mean ± SD, read-out: Cmax): 44.2 µg/mL | Tmax ([2]; male, Sprague-Dawley, plasma, po, 25 mg/kg, Male, PO/25 mg/kg, Mean ± SD, read-out: Tmax): 2.9 ± 4.5 h | AUC(0-t) ([2]; male, Sprague-Dawley, plasma, po, 75 mg/kg, rat PO 75 mg/kg, male, mean, read-out: AUClast): 906 µg·h/mL | Cmax ([2]; male, Sprague-Dawley, plasma, po, 75 mg/kg, rat PO 75 mg/kg, male, mean, read-out: Cmax): 92.3 µg/mL | Tmax ([2]; male, Sprague-Dawley, plasma, po, 75 mg/kg, rat PO 75 mg/kg, male, mean, read-out: Tmax): 4 h | AUC(0-t) ([2]; male, Sprague-Dawley, plasma, po, 75 mg/kg, Male, PO/75 mg/kg, Mean ± SD, read-out: AUC0-24): 906 µg·h/mL | Cmax ([2]; male, Sprague-Dawley, plasma, po, 75 mg/kg, Male, PO/75 mg/kg, Mean ± SD, read-out: Cmax): 92.3 µg/mL | Tmax ([2]; male, Sprague-Dawley, plasma, po, 75 mg/kg, Male, PO/75 mg/kg, Mean ± SD, read-out: Tmax): 4 ± 2 h | AUC(0-t) ([2]; male, Sprague-Dawley, plasma, po, 250 mg/kg, rat PO 250 mg/kg, male, mean, read-out: AUClast): 2090 µg·h/mL | Cmax ([2]; male, Sprague-Dawley, plasma, po, 250 mg/kg, rat PO 250 mg/kg, male, mean, read-out: Cmax): 144 µg/mL | Tmax ([2]; male, Sprague-Dawley, plasma, po, 250 mg/kg, rat PO 250 mg/kg, male, mean, read-out: Tmax): 5.33 h | AUC(0-t) ([2]; male, Sprague-Dawley, plasma, po, 250 mg/kg, Male, PO/250 mg/kg, Mean ± SD, read-out: AUC0-24): 2090 µg·h/mL | Cmax ([2]; male, Sprague-Dawley, plasma, po, 250 mg/kg, Male, PO/250 mg/kg, Mean ± SD, read-out: Cmax): 144 µg/mL | Tmax ([2]; male, Sprague-Dawley, plasma, po, 250 mg/kg, Male, PO/250 mg/kg, Mean ± SD, read-out: Tmax): 5.3 ± 1.1 h | AUClast/D ([2]; rat PO 25 mg/kg, female, mean): 37897 | AUC—% Extrap—obs ([2]; rat PO 25 mg/kg, female, mean): 9% | AUClast/D ([2]; rat PO 25 mg/kg, male, mean): 14077 | AUC—% Extrap—obs ([2]; rat PO 25 mg/kg, male, mean): 1.28% | AUClast/D ([2]; rat PO 75 mg/kg, female, mean): 33882 | AUC—% Extrap—obs ([2]; rat PO 75 mg/kg, female, mean): 18.5% | AUClast/D ([2]; rat PO 75 mg/kg, male, mean): 12078 | AUC—% Extrap—obs ([2]; rat PO 75 mg/kg, male, mean): 0.473% | AUClast/D ([2]; rat PO 250 mg/kg, female, mean): 17869 | AUC—% Extrap—obs ([2]; rat PO 250 mg/kg, female, mean): 59.9% | AUClast/D ([2]; rat PO 250 mg/kg, male, mean): 8340 | AUC—% Extrap—obs ([2]; rat PO 250 mg/kg, male, mean): 26.5% | AUC0-24 salt/ AUC0-24 free/ ([2]; Female, PO/20 mg/kg): 1.07 | AUC0-24 [2, 10]: 947,000 ± 135,000 ng h/mL | Cmax [2, 10]: 68,600 ± 6400 ng/mL | AUC0-24 salt/ AUC0-24 free/ ([2]; Female, PO/60 mg/kg): 1.78 | AUC0-24 [2, 11]: 2,540,000 ± 503,000 ng h/mL | Cmax [2, 11]: 171,000 ± 11,600 ng/mL | AUC0-24 salt/ AUC0-24 free/ ([2]; Female, PO/200 mg/kg): 1.57 | AUC0-24 [2, 12]: 4,470,000 ± 705,000 ng h/mL | Cmax [2, 12]: 223,000 ± 29,900 ng/mL | Tmax [2, 12]: 6.7 ± 1.1 h | AUC0-24 salt/ AUC0-24 free/ ([2]; Male, PO/25 mg/kg): 2.11 | AUC0-24 salt/ AUC0-24 free/ ([2]; Male, PO/75 mg/kg): 2.03 | AUC0-24 salt/ AUC0-24 free/ ([2]; Male, PO/250 mg/kg): 1.89

Reference: patent US20250179049A1, “SALTS OF HETEROCYCLIC INHIBITORS OF MONOCARBOXYLATE TRANSPORTER 4 FOR THE TREATMENT OF DISEASE” (Vettore, LLC, priority 2022, published 2025)
